Laboratory results: patent publication US20240261224A1, “FORMULATION OF A PAN-JAK INHIBITOR” (KINASET THERAPEUTICS, INC., priority 2022, published 2024)
Where two headings read alike, the source gives them in different places.

What was measured:
[1] = system: fractional exhaled nitric oxide (FeNO); test: Phase 1 Part 2: FeNO reduction in ICS-naïve mild asthmatics; assay type: in vivo, human; details: for Mean placebo-corrected FeNO reduction: mild asthma ICS naïve
Method: A status summary of the phase 1 clinical trial recruitment is shown below in Table 18. Capsules filled with blend 2a were used to achieve a 0.6 mg target dose of Compound I (0.2 mg capsules×3). Capsules filled with blend 4 were used to achieve 2.0 mg, 4.0 mg, 6.0 mg, 8.0 mg, and 12.0 mg target doses of Compound I (2.0 mg capsule×1; 4.0 mg capsule×1; 2.0 mg capsules×3; 4.0 mg capsules×2; and 4.0 mg capsules×3, respectively). Twice daily dosing (BID) was achieved by repeating the preceding regime. For example, an 8.0 mg BID dosing regime is achieved by administering two doses of 4.0 mg capsules×2.
Particular FeNO reduction data from FIG. 5 is highlighted below in Table 19. For comparison, it is established that FeNO reductions greater than 20% are clinically significant (Am. J. Respir. Crit. Care Med. 2011, 184, 602).
Day 10 pharmacokinetic parameters for Parts 2 and 3 of Phase I are summarized below in Table 28. Part 2 involved the administration of 4 different dose regimens, to subjects with mild asthma naïve to ICS therapy, over a 10-day period. Each separate cohort comprised 6 subjects receiving active treatment with 2 receiving matching placebo. Blood samples were collected to enable the measurement of Compound I concentrations in plasma. The resultant data was used to determine the PK parameters at Day 10 representing the Day on which the final dose was received.

JAK3 = target: T1, JAK3 (Homo sapiens, UniProt P52333); details: cited from earlier work
T1 sequence (P52333 1-1124): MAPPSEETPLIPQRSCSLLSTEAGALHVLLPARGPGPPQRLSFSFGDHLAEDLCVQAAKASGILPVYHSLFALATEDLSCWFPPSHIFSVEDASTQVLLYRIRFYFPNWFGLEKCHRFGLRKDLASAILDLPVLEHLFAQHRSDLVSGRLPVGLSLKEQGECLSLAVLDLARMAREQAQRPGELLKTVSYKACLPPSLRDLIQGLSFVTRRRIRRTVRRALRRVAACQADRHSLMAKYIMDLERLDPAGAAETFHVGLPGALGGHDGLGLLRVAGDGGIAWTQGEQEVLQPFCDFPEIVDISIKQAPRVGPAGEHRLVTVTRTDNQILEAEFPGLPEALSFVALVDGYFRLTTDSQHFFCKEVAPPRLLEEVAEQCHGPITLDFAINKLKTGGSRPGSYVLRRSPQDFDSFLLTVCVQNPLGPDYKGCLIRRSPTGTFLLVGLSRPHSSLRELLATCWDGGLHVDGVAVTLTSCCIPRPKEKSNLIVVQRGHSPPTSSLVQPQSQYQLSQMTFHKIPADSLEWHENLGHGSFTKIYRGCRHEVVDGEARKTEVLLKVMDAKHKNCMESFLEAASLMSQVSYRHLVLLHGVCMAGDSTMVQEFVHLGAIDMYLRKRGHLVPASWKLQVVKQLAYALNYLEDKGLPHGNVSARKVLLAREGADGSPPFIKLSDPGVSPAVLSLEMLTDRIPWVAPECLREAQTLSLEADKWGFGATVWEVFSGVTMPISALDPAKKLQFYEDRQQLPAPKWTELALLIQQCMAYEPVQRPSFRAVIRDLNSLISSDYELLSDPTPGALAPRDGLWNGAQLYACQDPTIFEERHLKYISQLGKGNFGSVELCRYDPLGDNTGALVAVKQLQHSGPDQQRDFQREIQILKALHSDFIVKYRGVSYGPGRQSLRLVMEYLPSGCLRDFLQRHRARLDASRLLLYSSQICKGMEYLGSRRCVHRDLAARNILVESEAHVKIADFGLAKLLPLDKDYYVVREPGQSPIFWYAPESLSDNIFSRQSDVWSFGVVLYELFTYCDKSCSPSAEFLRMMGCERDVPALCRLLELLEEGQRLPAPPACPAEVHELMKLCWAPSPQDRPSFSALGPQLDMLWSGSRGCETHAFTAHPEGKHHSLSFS

[2] = Margin of safety study versus 13-wk NHP NOAEL; assay type: in vivo
Description: Results from the margin of safety study of lactose/MgSt-based formulations of Compound I are shown below in Table 17.

[3] = Phase 1 Part 3 plasma pharmacokinetics (moderate to severe asthma); assay type: in vivo, human; details: 4 mg BID; for AUC(0-t) / AUC(0-inf) / AUC / Cmax: human, plasma, inhaled, 4 mg
Method: Part 3 involved the administration of a single dose regimen (4 mg BID), to subjects (17 active:6 placebo) with moderate to severe asthma treated with background ISC/LABA therapy, over a 10-day period. Blood samples were collected to enable the measurement of KN-002 concentrations in plasma. The resultant data was used to determine the pharmacokinetic parameters at Day 10 representing the Day on which the final dose was received.

JAK2 = JAK2 (Homo sapiens, UniProt O60674); details: cited from earlier work
TYK2 = TYK2 (Homo sapiens, UniProt P29597); details: cited from earlier work
[4] = 4.0 mg BID vs 13-week NHP study

Chain of JAK2 (O60674 whole entry): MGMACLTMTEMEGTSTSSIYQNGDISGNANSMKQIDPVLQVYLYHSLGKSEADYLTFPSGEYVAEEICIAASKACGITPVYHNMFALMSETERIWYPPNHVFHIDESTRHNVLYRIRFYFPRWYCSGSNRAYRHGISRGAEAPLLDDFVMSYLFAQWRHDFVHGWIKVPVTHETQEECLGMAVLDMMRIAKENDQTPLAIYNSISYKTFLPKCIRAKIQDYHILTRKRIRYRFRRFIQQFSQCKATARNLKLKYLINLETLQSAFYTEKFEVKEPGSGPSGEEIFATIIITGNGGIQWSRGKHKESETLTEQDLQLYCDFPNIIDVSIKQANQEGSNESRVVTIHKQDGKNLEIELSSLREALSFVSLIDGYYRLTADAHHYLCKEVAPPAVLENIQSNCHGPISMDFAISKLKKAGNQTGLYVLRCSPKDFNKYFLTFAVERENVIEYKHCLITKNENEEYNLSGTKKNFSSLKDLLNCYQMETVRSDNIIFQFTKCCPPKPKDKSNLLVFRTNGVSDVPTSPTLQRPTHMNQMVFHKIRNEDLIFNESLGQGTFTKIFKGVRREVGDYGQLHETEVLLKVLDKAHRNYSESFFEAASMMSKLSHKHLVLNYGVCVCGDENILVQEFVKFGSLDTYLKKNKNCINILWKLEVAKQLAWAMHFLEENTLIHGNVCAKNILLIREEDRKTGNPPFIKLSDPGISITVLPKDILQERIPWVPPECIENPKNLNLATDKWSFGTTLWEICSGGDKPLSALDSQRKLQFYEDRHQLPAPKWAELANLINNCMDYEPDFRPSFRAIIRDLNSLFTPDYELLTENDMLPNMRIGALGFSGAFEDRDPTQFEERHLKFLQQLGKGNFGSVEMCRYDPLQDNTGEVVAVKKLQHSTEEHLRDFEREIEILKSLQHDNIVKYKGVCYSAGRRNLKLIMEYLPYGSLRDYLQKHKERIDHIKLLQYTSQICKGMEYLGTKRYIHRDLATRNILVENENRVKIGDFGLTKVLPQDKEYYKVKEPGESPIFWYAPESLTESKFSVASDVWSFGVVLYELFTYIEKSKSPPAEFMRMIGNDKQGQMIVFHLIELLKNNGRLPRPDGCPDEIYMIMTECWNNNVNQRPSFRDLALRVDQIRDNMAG
Chain of TYK2 (P29597 whole entry): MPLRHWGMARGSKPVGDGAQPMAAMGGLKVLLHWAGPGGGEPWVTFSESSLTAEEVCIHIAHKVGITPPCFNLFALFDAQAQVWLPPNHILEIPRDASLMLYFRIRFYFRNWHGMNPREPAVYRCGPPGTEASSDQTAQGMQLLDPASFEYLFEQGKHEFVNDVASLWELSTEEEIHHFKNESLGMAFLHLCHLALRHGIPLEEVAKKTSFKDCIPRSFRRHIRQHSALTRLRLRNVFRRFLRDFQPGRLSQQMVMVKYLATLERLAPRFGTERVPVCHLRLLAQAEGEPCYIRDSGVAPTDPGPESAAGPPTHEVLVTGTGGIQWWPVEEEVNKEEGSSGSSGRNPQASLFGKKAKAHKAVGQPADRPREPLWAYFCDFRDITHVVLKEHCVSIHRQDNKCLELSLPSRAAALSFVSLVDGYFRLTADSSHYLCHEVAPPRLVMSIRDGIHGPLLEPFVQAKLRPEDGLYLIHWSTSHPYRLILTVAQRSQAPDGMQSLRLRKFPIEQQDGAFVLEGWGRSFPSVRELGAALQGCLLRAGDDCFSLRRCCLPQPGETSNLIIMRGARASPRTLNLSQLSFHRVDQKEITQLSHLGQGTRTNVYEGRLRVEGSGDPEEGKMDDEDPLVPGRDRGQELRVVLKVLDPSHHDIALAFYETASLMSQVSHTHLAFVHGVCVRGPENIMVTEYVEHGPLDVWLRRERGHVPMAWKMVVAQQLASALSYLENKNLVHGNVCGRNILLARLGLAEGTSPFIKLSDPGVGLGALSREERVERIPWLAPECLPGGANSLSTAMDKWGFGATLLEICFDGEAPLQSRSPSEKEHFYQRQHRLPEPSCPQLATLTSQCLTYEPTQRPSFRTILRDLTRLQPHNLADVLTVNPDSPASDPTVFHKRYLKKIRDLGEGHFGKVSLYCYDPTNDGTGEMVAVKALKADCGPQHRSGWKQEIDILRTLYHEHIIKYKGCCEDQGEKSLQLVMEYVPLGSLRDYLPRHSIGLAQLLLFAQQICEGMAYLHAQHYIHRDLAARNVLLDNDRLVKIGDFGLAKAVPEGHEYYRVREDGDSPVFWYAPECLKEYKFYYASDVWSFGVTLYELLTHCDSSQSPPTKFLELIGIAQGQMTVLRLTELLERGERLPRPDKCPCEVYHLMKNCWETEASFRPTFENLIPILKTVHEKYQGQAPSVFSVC

Cn1c(=O)n([C@H]2CCCN(C(=O)CC#N)C2)c2nc(-c3cnn4ccccc34)ccc21 [Compound I, (S)-3-(3-(1-methyl-2-oxo-5-(pyrazolo[1,5-a]pyridine-3-yl)-1H-imidazo[4,5-b]pyridine-3(2H)-yl)piperidin-1-yl)-3-oxopropanenitrile]
Pharmacological activity of dose regimen (FeNO) ([1]; 0.6 mg QD): minimally active dose | % subjects reporting Day 10 FeNO value <25 ppb ([1]; 0.6 mg QD (n = 6)): 16% | Mean placebo-corrected % FeNO reduction from day 1 pre-dose in ICS naïve mild asthmatics ([1]; 0.6 mg QD (n = 6), Day 10 + 3 hrs): −5.4% | Mean placebo-corrected % FeNO reduction from day 1 pre-dose in ICS naïve mild asthmatics ([1]; 0.6 mg QD (n = 6), Day 10 + 6 hrs): −6.7% | Mean placebo-corrected FeNO reduction ([1]; 0.6 mg QD, 3 capsules per dose): −7% | Mean placebo-corrected FeNO changes ([1]; 0.6 mg QD, Day 1 pre-dose to Day 10): < 20% | % subjects reporting Day 10 FeNO value <25 ppb ([1]; 2.0 mg QD (n = 6)): 16% | Mean placebo-corrected % FeNO reduction from day 1 pre-dose in ICS naïve mild asthmatics ([1]; 2.0 mg QD (n = 6), Day 10 + 3 hrs): −26.6% | Mean placebo-corrected % FeNO reduction from day 1 pre-dose in ICS naïve mild asthmatics ([1]; 2.0 mg QD (n = 6), Day 10 + 6 hrs): −24.0% | Mean placebo-corrected FeNO reduction ([1]; 2.0 mg QD, 1 capsule per dose): −24% | % subjects reporting Day 10 FeNO value <25 ppb ([1]; 4.0 mg BID (n = 6)): 67% | Mean placebo-corrected % FeNO reduction from day 1 pre-dose in ICS naïve mild asthmatics ([1]; 4.0 mg BID (n = 6), Day 10 + 3 hrs): −29.1% | Mean placebo-corrected % FeNO reduction from day 1 pre-dose in ICS naïve mild asthmatics ([1]; 4.0 mg BID (n = 6), Day 10 + 6 hrs): −30.6% | Mean placebo-corrected FeNO reduction ([1]; 4.0 mg BID, 1 capsule per dose): −26% | Mean placebo-corrected % FeNO reduction from Day 1 pre-dose ([1]; 4.0 mg BID, Day 10 + 3 hours): 29.1% | Mean placebo-corrected % FeNO reduction from Day 1 pre-dose ([1]; 4.0 mg BID, Day 10 + 6 hours): 30.6% | % subjects reporting Day 10 FeNO value <25 ppb ([1]; 8.0 mg BID (n = 6)): 50% | Mean placebo-corrected % FeNO reduction from day 1 pre-dose in ICS naïve mild asthmatics ([1]; 8.0 mg BID (n = 6), Day 10 + 3 hrs): −29.1% | Mean placebo-corrected % FeNO reduction from day 1 pre-dose in ICS naïve mild asthmatics ([1]; 8.0 mg BID (n = 6), Day 10 + 6 hrs): −25.9% | Pharmacological activity of dose regimens (FeNO) ([1]; dose regimens from 2 mg QD to 8 mg BID): pharmacologically active | Inhibition of JAK3 (JAK3): potent inhibitor | MoS versus inhalation toxicology study NOAELs, Lung exposure (mg/g lung) [2, 4]: 50 | MoS versus inhalation toxicology study NOAELs, Plasma (group mean AUC0-24) [2, 4]: 3.2 | Group mean AUC0-24 MoS (Phase 1 clinical study versus inhalation tox study NOAELs) ([2]; 4.0 mg BID vs 13-wk NHP NOAEL): 3.2 | Lung dose of Compound I (mg/g) MoS ([2]; 4.0 mg BID vs 13-wk NHP NOAEL, adjusted for respirability assuming 10%, 25% and 100% lung deposition in rat, NHP and human): 50 | AUC0-24 hours Max ([3]; Day 10): 689,494 pg · h/ml | AUC0-24 hours Min ([3]; Day 10): 123,642 pg · h/ml | AUC0-last non-zero Max ([3]; Day 10): 886,864 pg · h/ml | AUC0-last non-zero Min ([3]; Day 10): 133,118 pg · h/ml | AUC0-∞ Max ([3]; Day 10): 887,512 pg · h/ml | AUC0-∞ Min ([3]; Day 10): 134,831 pg · h/ml | AUCover dosing interval Max ([3]; Day 10): 501,523 pg · h/ml | AUCover dosing interval Min ([3]; Day 10): 105,203 pg · h/ml | Cmax Max ([3]; Day 10): 63,800 pg/ml | Cmax Min ([3]; Day 10): 15,900 pg/ml | Ctrough Geometric mean ([3]; Day 10): 9,806 pg/ml | Ctrough Max ([3]; Day 10): 23,000 pg/ml | Ctrough Mean ([3]; Day 10): 11,153 pg/ml | Ctrough Min ([3]; Day 10): 2,490 pg/ml | AUC(0-t) ([3]; Day 10, read-out: AUC0-24 hours Geometric mean): 334 ng·h/mL | AUC(0-t) ([3]; Day 10, read-out: AUC0-24 hours Mean): 365 ng·h/mL | AUC(0-t) ([3]; Day 10, read-out: AUC0-last non-zero Geometric mean): 393 ng·h/mL | AUC(0-t) ([3]; Day 10, read-out: AUC0-last non-zero Mean): 438 ng·h/mL | AUC(0-inf) ([3]; Day 10, read-out: AUC0-∞ Geometric mean): 395 ng·h/mL | AUC(0-inf) ([3]; Day 10, read-out: AUC0-∞ Mean): 439 ng·h/mL | AUC ([3]; Day 10, read-out: AUCover dosing interval Geometric mean): 257 ng·h/mL | AUC ([3]; Day 10, read-out: AUCover dosing interval Mean): 278 ng·h/mL | Cmax ([3]; Day 10, read-out: Cmax Geometric mean): 35 ng/mL | Cmax ([3]; Day 10, read-out: Cmax Mean): 37.5 ng/mL | Inhibition of JAK2 (JAK2): potent inhibitor | Inhibition of TYK2 (TYK2): potent inhibitor
